molecular target: T1, active p38 alpha enzyme (Upstate Biotechnology) (Homo sapiens, UniProt Q16539); assay: p38α biochemical assay (ATP turnover, luminescent detection, Cambrex PKlight); details: p38α kinase; Table 1 Biological Activity
T1 construct: purchased Upstate Biotechnology
Procedure, shortened: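 Active human p38α was incubated with full-length MapkapK2 protein as substrate and 1.4 uM ATP (final) for 2 hours at 30C. Buffer: 200 mM Tris, 100 mM MgCl2, 1.5 mM EGTA, 4 mM CaCl2, 20 mM MOPS, 1 mM EDTA, 1% glycerol, 0.1% β-mercaptoethanol, 1 mg/ml BSA. Total ATP turnover read by luminescence.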

T1 sequence (Q16539 whole entry): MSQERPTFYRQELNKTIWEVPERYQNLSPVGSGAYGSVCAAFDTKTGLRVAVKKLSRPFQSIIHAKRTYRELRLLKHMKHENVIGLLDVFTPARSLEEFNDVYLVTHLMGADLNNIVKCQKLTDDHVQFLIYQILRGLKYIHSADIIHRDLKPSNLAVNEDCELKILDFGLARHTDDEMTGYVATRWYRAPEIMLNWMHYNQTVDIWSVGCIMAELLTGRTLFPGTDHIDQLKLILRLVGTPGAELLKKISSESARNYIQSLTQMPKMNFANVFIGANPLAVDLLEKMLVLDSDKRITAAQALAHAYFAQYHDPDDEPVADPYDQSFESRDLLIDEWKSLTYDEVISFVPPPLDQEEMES

IC50 [µM]	SMILES
> 1	CC(C)NC(=O)c1csc(-c2c(-c3ccc(F)cc3)n[nH]c2C2CCN(C(=O)c3cc(F)c(Cl)cc3F)CC2)n1 [Example 973]
> 1	CCN(CC)c1ccc(C(=O)N2CCC(c3[nH]nc(-c4ccc(F)cc4)c3-c3nc(C(=O)NC(C)C)cs3)CC2)cc1 [Example 974]
> 1	COc1cc(/C=C/C(=O)N2CCC(c3[nH]nc(-c4ccc(F)cc4)c3-c3nc(C(=O)NC(C)C)cs3)CC2)ccc1O [Example 975]
> 1	COc1ccc(/C=C/C(=O)N2CCC(c3[nH]nc(-c4ccc(F)cc4)c3-c3nc(C(=O)NC(C)C)cs3)CC2)cc1O [Example 976]
≤ 1	CCCCOc1ccc(C(=O)N2CCC(c3[nH]nc(-c4ccc(F)cc4)c3-c3nc(C(=O)NC(C)C)cs3)CC2)cc1 [Example 977]
> 1	CC(C)NC(=O)c1csc(-c2c(-c3ccc(F)cc3)n[nH]c2C2CCN(C(=O)c3cc4cc(Cl)ccc4o3)CC2)n1 [Example 978]
> 1	COc1ccc([N+](=O)[O-])c(C(=O)N2CCC(c3[nH]nc(-c4ccc(F)cc4)c3-c3nc(C(=O)NC(C)C)cs3)CC2)c1 [Example 979]
> 1	COc1cc(C(=O)N2CCC(c3[nH]nc(-c4ccc(F)cc4)c3-c3nc(C(=O)NC(C)C)cs3)CC2)cc(OC)c1O [Example 980]
> 1	CC(C)NC(=O)c1csc(-c2c(-c3ccc(F)cc3)n[nH]c2C2CCN(C(=O)c3ccccc3-c3ccccc3)CC2)n1 [Example 981]
> 1	CC(C)NC(=O)c1csc(-c2c(-c3ccc(F)cc3)n[nH]c2C2CCN(C(=O)c3cccc(Br)c3)CC2)n1 [Example 982]
> 1	CC(C)NC(=O)c1csc(-c2c(-c3ccc(F)cc3)n[nH]c2C2CCN(C(=O)c3ccc(Br)cc3)CC2)n1 [Example 983]
> 1	CC(C)NC(=O)c1csc(-c2c(-c3ccc(F)cc3)n[nH]c2C2CCN(C(=O)c3cccc(Cl)c3[N+](=O)[O-])CC2)n1 [Example 984]
> 1	CC(C)NC(=O)c1csc(-c2c(-c3ccc(F)cc3)n[nH]c2C2CCN(C(=O)c3cc([N+](=O)[O-])ccc3Cl)CC2)n1 [Example 985]
> 1	CC(C)NC(=O)c1csc(-c2c(-c3ccc(F)cc3)n[nH]c2C2CCN(C(=O)c3ccc([N+](=O)[O-])cc3Cl)CC2)n1 [Example 986]
> 1	CC(C)NC(=O)c1csc(-c2c(-c3ccc(F)cc3)n[nH]c2C2CCN(C(=O)C3=CC=CC(Cl)C=C3[N+](=O)[O-])CC2)n1 (stereo not drawn) [Example 987]
≤ 1	CC(C)NC(=O)c1csc(-c2c(-c3ccc(F)cc3)n[nH]c2C2CCN(C(=O)c3ccc(Cl)c([N+](=O)[O-])c3)CC2)n1 [Example 988]
> 1	CC(C)NC(=O)c1csc(-c2c(-c3ccc(F)cc3)n[nH]c2C2CCN(C(=O)c3cc(Cl)ccc3[N+](=O)[O-])CC2)n1 [Example 989]
> 1	CC(C)NC(=O)c1csc(-c2c(-c3ccc(F)cc3)n[nH]c2C2CCN(C(=O)c3cccc(Br)n3)CC2)n1 [Example 990]
≤ 1	CC(C)NC(=O)c1csc(-c2c(-c3ccc(F)cc3)n[nH]c2C2CCN(C(=O)c3cncc(Br)c3)CC2)n1 [Example 991]
> 1	CC(C)NC(=O)c1csc(-c2c(-c3ccc(F)cc3)n[nH]c2C2CCN(C(=O)c3cc(F)c(F)cc3[N+](=O)[O-])CC2)n1 [Example 992]

IC50 [µM]	SMILES
> 1	CC(C)NC(=O)c1csc(-c2c(-c3ccc(F)cc3)n[nH]c2C2CCN(C(=O)Cc3ccc(C(F)(F)F)cc3)CC2)n1 [Example 993]
> 1	CC(C)Cc1ccc(C(C)C(=O)N2CCC(c3[nH]nc(-c4ccc(F)cc4)c3-c3nc(C(=O)NC(C)C)cs3)CC2)cc1 (stereo not drawn) [Example 994]
> 1	CC(C)NC(=O)c1csc(-c2c(-c3ccc(F)cc3)n[nH]c2C2CCN(C(=O)c3cc(Cl)c(O)c(Cl)c3)CC2)n1 [Example 995]
> 1	CC(C)NC(=O)c1csc(-c2c(-c3ccc(F)cc3)n[nH]c2C2CCN(C(=O)c3c(F)c(F)c(F)c(F)c3F)CC2)n1 [Example 996]
> 1	COc1cc(OC)c(C(=O)N2CCC(c3[nH]nc(-c4ccc(F)cc4)c3-c3nc(C(=O)NC(C)C)cs3)CC2)c(OC)c1 [Example 997]
> 1	COc1cc(OC)c(C(=O)N2CCC(c3[nH]nc(-c4ccc(F)cc4)c3-c3nc(C(=O)NC(C)C)cs3)CC2)cc1OC [Example 998]
> 1	COc1cc(C(=O)N2CCC(c3[nH]nc(-c4ccc(F)cc4)c3-c3nc(C(=O)NC(C)C)cs3)CC2)cc(OC)c1OC [Example 999]
> 1	COc1ccc(C(=O)N2CCC(c3[nH]nc(-c4ccc(F)cc4)c3-c3nc(C(=O)NC(C)C)cs3)CC2)c(OC)c1OC [Example 1000]
> 1	CC(C)NC(=O)c1csc(-c2c(-c3ccc(F)cc3)n[nH]c2C2CCN(C(=O)c3ccccc3Cc3ccccc3)CC2)n1 [Example 1001]
> 1	CC(C)NC(=O)c1csc(-c2c(-c3ccc(F)cc3)n[nH]c2C2CCN(C(=O)c3cccc(Oc4ccccc4)c3)CC2)n1 [Example 1002]
> 1	CC(C)NC(=O)c1csc(-c2c(-c3ccc(F)cc3)n[nH]c2C2CCN(C(=O)c3ccccc3Oc3ccccc3)CC2)n1 [Example 1003]
> 1	CC(C)NC(=O)c1csc(-c2c(-c3ccc(F)cc3)n[nH]c2C2CCN(C(=O)c3ccc(Oc4ccccc4)cc3)CC2)n1 [Example 1004]
> 1	CC(C)NC(=O)c1csc(-c2c(-c3ccc(F)cc3)n[nH]c2C2CCN(C(=O)c3ccc(-c4ccc(O)cc4)cc3)CC2)n1 [Example 1005]
> 1	Cc1cc(C(=O)N2CCC(c3[nH]nc(-c4ccc(F)cc4)c3-c3nc(C(=O)NC(C)C)cs3)CC2)ccc1Br [Example 1006]
> 1	Cc1ccc(C(=O)N2CCC(c3[nH]nc(-c4ccc(F)cc4)c3-c3nc(C(=O)NC(C)C)cs3)CC2)cc1Br [Example 1007]
> 1	CC(C)NC(=O)c1csc(-c2c(-c3ccc(F)cc3)n[nH]c2C2CCN(C(=O)Cc3ccc(Br)cc3)CC2)n1 [Example 1008]
> 1	CC(C)NC(=O)c1csc(-c2c(-c3ccc(F)cc3)n[nH]c2C2CCN(C(=O)C3CCCN3C(=O)OC(C)(C)C)CC2)n1 (stereo not drawn) [Example 1009]
> 1	CC(C)NC(=O)c1csc(-c2c(-c3ccc(F)cc3)n[nH]c2C2CCN(C(=O)/C=C/c3ccccc3C(F)(F)F)CC2)n1 [Example 1010]
> 1	CCOc1ccc2ccccc2c1C(=O)N1CCC(c2[nH]nc(-c3ccc(F)cc3)c2-c2nc(C(=O)NC(C)C)cs2)CC1 [Example 1011]
> 1	CC(C)NC(=O)c1csc(-c2c(-c3ccc(F)cc3)n[nH]c2C2CCN(C(=O)C(NC(=O)OC(C)(C)C)C(C)C)CC2)n1 (stereo not drawn) [Example 1012]

IC50 [µM]	SMILES
> 1	CC(C)NC(=O)c1csc(-c2c(-c3ccc(F)cc3)n[nH]c2C2CCN(C(=O)C(NC(=O)OC(C)(C)C)C(C)C)CC2)n1 (stereo not drawn) [Example 1013]
> 1	CC(C)NC(=O)c1csc(-c2c(-c3ccc(F)cc3)n[nH]c2C2CCN(C(=O)CCc3cccc(C(F)(F)F)c3)CC2)n1 [Example 1014]
> 1	CC1=NN(c2ccc(C(=O)N3CCC(c4[nH]nc(-c5ccc(F)cc5)c4-c4nc(C(=O)NC(C)C)cs4)CC3)cc2)C(=O)C1 [Example 1015]
> 1	Cc1nc(Br)sc1C(=O)N1CCC(c2[nH]nc(-c3ccc(F)cc3)c2-c2nc(C(=O)NC(C)C)cs2)CC1 [Example 1016]
> 1	CC(C)NC(=O)c1csc(-c2c(-c3ccc(F)cc3)n[nH]c2C2CCN(C(=O)c3c4ccccc4cc4ccccc34)CC2)n1 [Example 1017]
> 1	CC(C)NC(=O)c1csc(-c2c(-c3ccc(F)cc3)n[nH]c2C2CCN(C(=O)c3cc(C(C)C)cc(C(C)C)c3O)CC2)n1 [Example 1018]
> 1	CC(=O)NC(Cc1ccc(O)cc1)C(=O)N1CCC(c2[nH]nc(-c3ccc(F)cc3)c2-c2nc(C(=O)NC(C)C)cs2)CC1 (stereo not drawn) [Example 1019]
> 1	CC(C)NC(=O)c1csc(-c2c(-c3ccc(F)cc3)n[nH]c2C2CCN(C(=O)c3c(Cl)cc(Cl)cc3Cl)CC2)n1 [Example 1020]
> 1	COc1cc(C(=O)N2CCC(c3[nH]nc(-c4ccc(F)cc4)c3-c3nc(C(=O)NC(C)C)cs3)CC2)c([N+](=O)[O-])cc1OC [Example 1021]
> 1	CC(C)NC(=O)c1csc(-c2c(-c3ccc(F)cc3)n[nH]c2C2CCN(C(=O)c3ccc(OCc4ccccc4)cc3)CC2)n1 [Example 1022]
> 1	CC(C)NC(=O)c1csc(-c2c(-c3ccc(F)cc3)n[nH]c2C2CCN(C(=O)CCc3ccccc3Br)CC2)n1 [Example 1023]
> 1	CC(C)NC(=O)c1csc(-c2c(-c3ccc(F)cc3)n[nH]c2C2CCN(C(=O)CCc3cccc(Br)c3)CC2)n1 [Example 1024]
> 1	CC(C)NC(=O)c1csc(-c2c(-c3ccc(F)cc3)n[nH]c2C2CCN(C(=O)C3CCCCN3C(=O)OC(C)(C)C)CC2)n1 (stereo not drawn) [Example 1025]
> 1	CC(C)NC(=O)c1csc(-c2c(-c3ccc(F)cc3)n[nH]c2C2CCN(C(=O)c3ccc(Oc4cccc(O)c4)cc3)CC2)n1 [Example 1026]
> 1	COc1ccc2cc(C(C)C(=O)N3CCC(c4[nH]nc(-c5ccc(F)cc5)c4-c4nc(C(=O)NC(C)C)cs4)CC3)ccc2c1 (stereo not drawn) [Example 1027]
> 1	CC(C)NC(=O)c1csc(-c2c(-c3ccc(F)cc3)n[nH]c2C2CCN(C(=O)C3CN(C(=O)OC(C)(C)C)CCN3)CC2)n1 (stereo not drawn) [Example 1028]
≤ 1	CC(C)NC(=O)c1csc(-c2c(-c3ccc(F)cc3)n[nH]c2C2CCN(C(=O)C3CN(C(=O)OC(C)(C)C)CCN3)CC2)n1 (stereo not drawn) [Example 1029]
> 1	COc1ccc(Br)c(C(=O)N2CCC(c3[nH]nc(-c4ccc(F)cc4)c3-c3nc(C(=O)NC(C)C)cs3)CC2)c1 [Example 1030]
≤ 1	CC(C)NC(=O)c1csc(-c2c(-c3ccc(F)cc3)n[nH]c2C2CCN(C(=O)C3CC(O)CN3C(=O)OC(C)(C)C)CC2)n1 (stereo not drawn) [Example 1031]
≤ 1	CC(C)NC(=O)c1csc(-c2c(-c3ccc(F)cc3)n[nH]c2C2CCN(C(=O)C(C(C)C)N(C)C(=O)OC(C)(C)C)CC2)n1 (stereo not drawn) [Example 1032]
